Bounds are passed on as bounds.

In one assay the test system is KB-31 cells. Put plainly: In vitro cell growth inhibition assay (methylene blue). The class given is cell-based, human. To be noted: read-out: concentration half-maximally inhibiting proliferation. As to the method: Anti-proliferative assays are performed basically as described (Meyer et al., Int. J. Cancer 43:851 (1989)). Briefly, cells are seeded at 1.5×10^3 cells/well into 96-well microtiter plates and allowed to adhere by incubation overnight. Compounds are added in serial dilutions on day 1. The plates are then incubated for an additional 3 days, after which the cells are fixed with 3.3% v/v glutaraldehyde, washed with water and stained with 0.05% w/v methylene blue according to conventional methods. After washing, the dye is eluted with 3% HCl and the optical density measured at 665 nm with a SpectraMax Plus (Molecular Devices, Sunnyvale, Calif.) according to manufacturers instructions. IC50 values are determined by mathematical curve-fitting using the SoftPro2.6.1 program (Molecular Devices, Sunnyvale, Calif.) using the formula (OD treated−OD start)/(OD control−OD start)×100. […] IC50 determinations with the cell line 298/D4/40 are performed in the presence of 40 nM epothilone A.
The epothilone resistant cell lines, EpoA320-80C, EpoA320/ND, 298/D4/40, 297/C5/0 and 315/sc5.9 are generated as disclosed above. […] A subclone, 298/D4/40, is adapted to grow in the presence of 40 nM epothilone A administered twice weekly (i.e. at every medium change). […]

A further assay concerns EA150 cells. The assay is described as follows: MTS growth inhibition assay. The assay is classed as cell-based. As to the method:
(§1) Growth inhibition may be analyzed using conventional methods, for example a MTS assay (PROMEGA, Wis.) may be used. In this assay approximately 4000 cells per well are seeded in 96 well plates in MEM supplemented with 10% fetal calf serum and incubated at 37° C. in 5.0% CO2. After 24 hours, dilutions of drug (concentration range used is between 1 nM and 1000 nM) are added and cells are allowed to incubate with drug for an additional 72 hours. The MTS reagent mixed with PMS (MTS:PMS 20:1 according to manufacturer's instructions) is then added and absorbance quantitated using a Thermomax microplate reader system according to conventional methods (Molecular Devices, Sunnyvale, Calif.). […] Six assays per drug per plate are performed.
(§2) Thus, at least two potential mechanisms of epothilone A resistance may exist—a lower resistance mechanism that is cross-resistant to TAXOL® and a higher, epothilone A specific resistance mechanism.

For another assay, the system named is EA20 cells. The assay is described as follows: MTS growth inhibition assay. The class given is cell-based. As for the experimental part:
as §1, §2

Another assay concerns MDA-MB-435 cells. Put plainly: MTS growth inhibition assay. The assay is classed as cell-based. The note with it: MTS, 72 hours drug, Table 1. As to the method: as §1, §2
(Tetrazolium dyes change colour on reduction, which living cells bring about.)

In a further assay the test system is EA60 cells. Put plainly: MTS growth inhibition assay. The assay is classed as cell-based. As to the method:
as §1, §2

Another assay has as its system EA10 cells. Put plainly: MTS growth inhibition assay. The class given is cell-based. As to the method: as §1, §2

Turning to `C/C(=C\c1csc(C)n1)[C@@H]1C[C@@H]2O[C@@H]2CCC[C@H](C)[C@H](O)[C@@H](C)C(=O)C(C)(C)[C@@H](O)CC(=O)O1` [Epothilone A, epothilone A], the IC50 in the assay on KB-31 cells was 3.2 nM; in the assay with EA150 cells (MTS, 72 hours drug, Table 1) it was more than 500 nM; with EA20 cells (MTS, 72 hours drug, Table 1), 28 ± 3 nM; in the assay with MDA-MB-435 cells, 4 ± 1.8 nM; with EA60 cells (MTS, 72 hours drug, Table 1), 82 ± 1.5 nM; in the assay with EA10 cells (MTS, 72 hours drug, Table 1), 18 ± 3.8 nM. The “increase in IC50 over MDA-MB-435 cells” value was more than 100 fold in the assay with EA150 cells, 7 fold in the assay on EA20 cells, 15 fold in the assay with EA60 cells and 5 fold in the assay with EA10 cells.

Source of the values: patent publication US20070134744A1, “Epothilone resistant cell lines” (priority 2000, published 2007).
